Active and inactive are the calls of the source.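 How the source made its calls: active means fitted curve falls past a set limit of signal loss at no more than twice the top dose; inconclusive means flat fit between 30 and 70% signal loss, or poor fit; inactive means signal rise, flat within 30%, or crossing too high.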
Test: HEK293T cell cytotoxicity, dose response, cytotoxicity control, CellTiter-Glo luminescence, cherry-pick, set 3 (AID 720588)
Settings: HEK293T viability, CellTiter-Glo ATP luminescence, 72 h

C[C@@H]1CN([C@H](C)CO)C(=O)Cc2cc(N(C)C)ccc2O[C@H]1CN(C)Cc1ccc(C(=O)Nc2ccccc2N)cc1
activity change, negative = cytotoxicity (at 26 µM (top of the series)): -25.9% (inactive)

CC1(C)Oc2cc3oc(-c4cc(O)cc(O)c4)cc3cc2CC1O (stereo not given)
activity change, negative = cytotoxicity (at 26 µM (top of the series)): -1.31% (inactive)

Cc1cccc(N2CCN(C3C(=O)Nc4ccccc4-n4nnnc43)CC2)c1C (stereo not given)
activity change, negative = cytotoxicity (at 26 µM (top of the series)): -24.4% (inactive)

COc1cc(/C=N\Nc2nc(-c3ccc(C)cc3)c(NC(C)=O)s2)ccc1O
activity change, negative = cytotoxicity (at 26 µM (top of the series)): -4.57% (inactive)

COC(=O)C[C@@H]1CC[C@@H]2[C@H](COc3ccc(NC(=O)c4cccc(F)c4)cc3C(=O)N2C)O1
activity change, negative = cytotoxicity (at 23.5 µM (top of the series)): -28.5% (inactive)

CC(C)CN(C(=O)CN1CCOCC1)c1c(N)n(CC(C)C)c(=O)[nH]c1=O
activity change, negative = cytotoxicity (at 26 µM (top of the series)): 6.36% (inactive)

C[C@H](CO)N1C[C@H](C)[C@H](CN(C)CC2CCCCC2)Oc2ccc(NC(=O)CCCCCC(=O)Nc3ccccc3N)cc2CC1=O
activity change, negative = cytotoxicity (at 21 µM (top of the series)): 5.04% (inactive)

COC(=O)C[C@H]1CC[C@H]2[C@@H](COc3ccc(NC(=O)Nc4cccc(Cl)c4)cc3C(=O)N2C)O1
activity change, negative = cytotoxicity (at 26 µM (top of the series)): -24.3% (inactive)

CCc1ccc2oc(C(=O)N3CCN(c4ccccc4OC)CC3)cc(=O)c2c1
activity change, negative = cytotoxicity (at 26 µM (top of the series)): -13.2% (inactive)

COc1ccc(C(CCNCc2ccc(OC(C)C)cc2)C(C)C)cc1 (stereo not given)
activity change, negative = cytotoxicity (at 26 µM (top of the series)): -12.5% (inactive)

C[C@@H]1CN([C@H](C)CO)C(=O)c2cc(NC(=O)CCCCCC(=O)Nc3ccccc3N)ccc2O[C@H]1CN(C)S(=O)(=O)c1ccc(Cl)cc1
activity change, negative = cytotoxicity (at 26 µM (top of the series)): -21.5% (inactive)

Cc1cc(C(=O)NNC(=O)c2ccc(S(=O)(=O)N(C)C)cc2)c(C)o1
activity change, negative = cytotoxicity (at 26 µM (top of the series)): -12.5% (inactive)

C#CCOCCOCCOCCNc1nc(N2CCN(C(=O)CCCCCCCCCCNC(=O)Cn3cc(C[C@@H](C)O)nn3)CC2)nc(N2CCN(C(=O)CCCCCCCCCCNC(=O)[C@H](CO)n3cc(CCCSC)nn3)CC2)n1
activity change, negative = cytotoxicity (at 26 µM (top of the series)): 23.5% (inactive)

O=C(CCCCl)Nc1nc(-c2ccc3c(c2)OCCO3)cs1
activity change, negative = cytotoxicity (at 26 µM (top of the series)): 13.6% (inactive)

CC1(C(=O)NCc2ccco2)Cc2c(-c3cccc(C(N)=O)c3)ccnc2O1 (stereo not given)
activity change, negative = cytotoxicity (at 26 µM (top of the series)): -5.89% (inactive)

COC(=O)Cc1[nH]n(-c2nc3ccccc3s2)c(=O)c1C(C)=Nc1ccc(C)cc1
activity change, negative = cytotoxicity (at 26 µM (top of the series)): -30% (inactive)

COCCCNc1ccn2nc(-c3ccccc3)cc2n1
activity change, negative = cytotoxicity (at 26 µM (top of the series)): -27.1% (inactive)

Cc1sc2nc(CN3CCC(C)CC3)nc(Cl)c2c1C
activity change, negative = cytotoxicity (at 26 µM (top of the series)): 5.44% (inactive)

COC(=O)C[C@@H]1CC[C@@H]2[C@H](COc3ccc(NC(=O)c4ccc(F)cc4)cc3C(=O)N2C)O1
activity change, negative = cytotoxicity (at 26 µM (top of the series)): 76.4% (inactive)

Cc1ccc(C(CC(=O)O)Nc2nc(N3CCOCC3)nc(N3CCOCC3)n2)cc1 (stereo not given)
activity change, negative = cytotoxicity (at 26 µM (top of the series)): 25.6% (inactive)

COc1cccc(S(=O)(=O)N(C)C[C@H]2OCc3cnnn3CCCC(=O)N([C@@H](C)CO)C[C@H]2C)c1
activity change, negative = cytotoxicity (at 26 µM (top of the series)): 5% (inactive)

CC(C)Oc1ccc(Br)cc1C(=O)N/N=C/c1c[nH]c2ccccc12
activity change, negative = cytotoxicity (at 26 µM (top of the series)): -16.4% (inactive)

N#CC1C=Cc2c(ccc3ccccc23)N1C(=O)c1ccccc1 (stereo not given)
activity change, negative = cytotoxicity (at 26 µM (top of the series)): -20.1% (inactive)

COC(=O)COc1ccc(-c2nccc(-c3ccccn3)n2)cc1
activity change, negative = cytotoxicity (at 26 µM (top of the series)): 19.3% (inactive)

CC(C)(C)c1ccc(Cn2c(=O)cnc3ccccc32)cc1
activity change, negative = cytotoxicity (at 26 µM (top of the series)): -33.1% (inactive)

CN(C)C(=O)c1ccc(-c2ccccc2[C@@H]2[C@@H](CO)N(C(=O)C3CC3)[C@H]2C#N)cc1
activity change, negative = cytotoxicity (at 26 µM (top of the series)): 13.4% (inactive)

CC(C)(C)c1ccc(Oc2ccc(NC(=O)c3ccccc3C(=O)O)cn2)cc1
activity change, negative = cytotoxicity (at 26 µM (top of the series)): 16.5% (inactive)

C[C@@H]1CN([C@@H](C)CO)C(=O)c2cccc(NC(=O)Nc3ccccc3)c2O[C@@H]1CN(C)Cc1ccc(-c2ccccc2)cc1
activity change, negative = cytotoxicity (at 26 µM (top of the series)): -22.7% (inactive)

COc1ccc(/C=C2\SC(=O)N(CCCC(=O)Nc3cc(Cl)ccc3C(=O)O)C2=O)cc1
activity change, negative = cytotoxicity (at 26 µM (top of the series)): -2.58% (inactive)

O=C(C[C@@H]1CC[C@@H]2[C@H](COC[C@@H](O)CN2S(=O)(=O)c2ccc(F)cc2)O1)NCc1ccc(Cl)c(Cl)c1
activity change, negative = cytotoxicity (at 26 µM (top of the series)): 2.6% (inactive)

COc1ccc(/C=N/Nc2ccc(C(=O)O)cc2)cc1Br
activity change, negative = cytotoxicity (at 26 µM (top of the series)): -6.35% (inactive)

O=c1cc(CN2CCN(Cc3ccccc3)CC2)c2ccc(O)c(O)c2o1
activity change, negative = cytotoxicity (at 26 µM (top of the series)): 28.6% (inactive)

C[C@H]1CN([C@@H](C)CO)C(=O)Cc2cc(NC(=O)C3CC3)ccc2O[C@H]1CN(C)S(=O)(=O)c1ccc(Cl)cc1
activity change, negative = cytotoxicity (at 26 µM (top of the series)): -9.99% (inactive)

CCOc1ccc(NC(=O)C(=O)N/N=C\c2ccc(CNS(=O)(=O)c3ccccc3)o2)cc1
activity change, negative = cytotoxicity (at 26 µM (top of the series)): -24.2% (inactive)

O=C(CCCN1C(=O)S/C(=C\c2ccccc2)C1=O)NNC(=O)c1ccccc1O
activity change, negative = cytotoxicity (at 26 µM (top of the series)): -28.3% (inactive)

O=c1c2ccccc2oc2ccc(C#CC3(O)CCCCC3)cc12
activity change, negative = cytotoxicity (at 26 µM (top of the series)): -6.65% (inactive)

Cc1ccc(Cc2c(-c3ccco3)nc3c(C)cc(Br)cn23)cc1
activity change, negative = cytotoxicity (at 26 µM (top of the series)): 15.5% (inactive)

CN1C(=O)c2cc(NC(=O)c3ccc(Cl)cc3)ccc2OC[C@@H]2O[C@@H](CC(=O)NCc3cccc(F)c3)CC[C@H]21
activity change, negative = cytotoxicity (at 26 µM (top of the series)): -5.64% (inactive)

O=c1oc2cc(O)ccc2s1
activity change, negative = cytotoxicity (at 26 µM (top of the series)): -7.52% (inactive)

CCOc1cc2[nH]c(=S)n(Cc3ccc(C(=O)NCCN(CC)CC)cc3)c(=O)c2cc1OCC
activity change, negative = cytotoxicity (at 26 µM (top of the series)): -4.81% (inactive)

N=c1ccn2c(n1)O[C@H]1[C@H](O)[C@@H](CO)O[C@H]12
activity change, negative = cytotoxicity (at 26 µM (top of the series)): -7.04% (inactive)

CN(c1ccc(NC(=O)CCc2c[nH]c3ccccc23)cc1)c1ccccn1
activity change, negative = cytotoxicity (at 26 µM (top of the series)): -4.8% (inactive)

COc1ccc(C(=O)CN2C(=O)c3ccccc3S2(=O)=O)cc1
activity change, negative = cytotoxicity (at 26 µM (top of the series)): -13.5% (inactive)

O=C1C(=O)N(Cc2cccs2)c2ccccc21
activity change, negative = cytotoxicity (at 26 µM (top of the series)): -25.8% (inactive)

O=C(NC(=O)c1ccccc1)Nc1ccccc1
activity change, negative = cytotoxicity (at 26 µM (top of the series)): -31.5% (inactive)

Cc1ccc(N=C2NC(=O)/C(=C\c3cccs3)S2)cc1C
activity change, negative = cytotoxicity (at 26 µM (top of the series)): -13% (inactive)

Cc1nc2ncccn2c1-c1csc(Nc2ccc(O)cc2)n1
activity change, negative = cytotoxicity (at 26 µM (top of the series)): 23.7% (inactive)

O=C(O)CN1C(=O)/C(=C\c2ccccc2OCc2ccc(Cl)cc2Cl)SC1=S
activity change, negative = cytotoxicity (at 26 µM (top of the series)): 4.7% (inactive)

CC(=O)c1ccc(N=C2C(=O)Nc3ccccc32)cc1
activity change, negative = cytotoxicity (at 26 µM (top of the series)): -11.5% (inactive)

O=C(NC(c1ccc(F)cc1)c1ccc2ccccc2n1)C1CCN(Cc2cccc(C(F)(F)F)c2)CC1 (stereo not given)
activity change, negative = cytotoxicity (at 26 µM (top of the series)): -38.4% (inactive)

CCc1ccc(/C=C2\SC(=S)N(CCCC(=O)Nc3cc(C)on3)C2=O)cc1
activity change, negative = cytotoxicity (at 26 µM (top of the series)): -27.1% (inactive)

COC(=O)C[C@@H]1CC[C@@H]2[C@@H](COc3ccc(NC(=O)Cc4cccs4)cc3C(=O)N2C)O1
activity change, negative = cytotoxicity (at 26 µM (top of the series)): -8.47% (inactive)

O=C1C(=O)N(CCS(=O)(=O)c2ccccc2)c2ccccc21
activity change, negative = cytotoxicity (at 26 µM (top of the series)): 17.1% (inactive)

COc1ccc(CN(C)c2ncnc3sccc23)c(OC)c1OC
activity change, negative = cytotoxicity (at 26 µM (top of the series)): -29.1% (inactive)

CN1C/C(=C/c2ccsc2)C(=O)/C(=C/c2ccsc2)C1
activity change, negative = cytotoxicity (at 26 µM (top of the series)): -30% (inactive)

C(=Cc1c[nH]c2ccccc12)c1ccc2ccccc2n1
activity change, negative = cytotoxicity (at 26 µM (top of the series)): -26.3% (inactive)

Cc1ccc2c(=O)n3c(nc2c1)C(Cc1ccc(O)cc1)NC(=O)c1cc2ccccc2cc1-3 (stereo not given)
activity change, negative = cytotoxicity (at 26 µM (top of the series)): -16.8% (inactive)

CCN(CC)C(=O)CN1C(=O)C(=O)c2ccccc21
activity change, negative = cytotoxicity (at 26 µM (top of the series)): -11% (inactive)

Cc1cccc(NC(=O)CN2CCN(C(=O)CNC(=O)c3ccc(-c4ccccc4)cc3)CC2)c1C
activity change, negative = cytotoxicity (at 26 µM (top of the series)): -18.2% (inactive)

Cc1c(-c2nc(-c3ccc(C(C)(C)C)cc3)no2)n(C)oc1=O
activity change, negative = cytotoxicity (at 26 µM (top of the series)): -15.2% (inactive)

CCC(C)Cn1c(O)cc2nn(-c3nc4ccccc4s3)c(=O)c-2c1C (stereo not given)
activity change, negative = cytotoxicity (at 26 µM (top of the series)): 3.58% (inactive)

C[C@H]1CN([C@@H](C)CO)C(=O)c2cccc(NC(=O)c3ccc(-c4nccs4)cc3)c2O[C@@H]1CN(C)Cc1ccc(C(=O)Nc2ccccc2N)cc1
activity change, negative = cytotoxicity (at 26 µM (top of the series)): 28.9% (inactive)

C[C@H]1CN([C@@H](C)CO)C(=O)c2cccc(NC(=O)CCCCCC(=O)Nc3ccccc3N)c2O[C@@H]1CN(C)Cc1ccc2c(c1)OCO2
activity change, negative = cytotoxicity (at 26 µM (top of the series)): -20.1% (inactive)

S=C(NCCN1CCOCC1)Nc1ccccc1Cl
activity change, negative = cytotoxicity (at 26 µM (top of the series)): -17.7% (inactive)

CCNC(=O)[C@@H]1[C@@H](CO)[C@@H]2Cn3c(ccc(C4=CCCCC4)c3=O)[C@H]1N2CC
activity change, negative = cytotoxicity (at 26 µM (top of the series)): -16.5% (inactive)

CCc1ccc(/C=C2\SC(=S)N(CCC(=O)Nc3cc(C)on3)C2=O)cc1
activity change, negative = cytotoxicity (at 26 µM (top of the series)): 5.29% (inactive)

CCOc1ccc(N=C2C(=O)Nc3ccc(C)c(Br)c32)cc1
activity change, negative = cytotoxicity (at 26 µM (top of the series)): -10.6% (inactive)

CC(C)(C)c1ccc(Oc2ccc(NC(=O)C3CC=CCC3C(=O)O)cc2)cc1 (stereo not given)
activity change, negative = cytotoxicity (at 26 µM (top of the series)): -16.1% (inactive)

CCCN(C)C[C@H]1Oc2ncc(-c3ccccc3)cc2C(=O)N([C@@H](C)CO)C[C@H]1C
activity change, negative = cytotoxicity (at 26 µM (top of the series)): 2.32% (inactive)

CC(C)NC(=O)N(C)C[C@@H]1Oc2cc(C#Cc3ccc(F)cc3)ccc2S(=O)(=O)N([C@H](C)CO)C[C@H]1C
activity change, negative = cytotoxicity (at 26 µM (top of the series)): -0.81% (inactive)

Cc1ccc(S(=O)(=O)N(C)C[C@H]2Oc3c(cccc3N(C)C)C(=O)N([C@@H](C)CO)C[C@@H]2C)cc1
activity change, negative = cytotoxicity (at 26 µM (top of the series)): -21% (inactive)

COc1ccc(/C=C2/NC(=O)N(CC(=O)Nc3cccc(C)c3)C2=O)cc1O
activity change, negative = cytotoxicity (at 26 µM (top of the series)): -15.3% (inactive)

COc1ccc(NC(=O)N(C)[C@H]2C[C@H]3c4[nH]c5ccccc5c4CCN3C(=O)[C@H]2CO)cc1
activity change, negative = cytotoxicity (at 26 µM (top of the series)): -20.7% (inactive)

CN(C)c1ccc(-c2ccnc3c2CC(C)(C(=O)NCc2ccco2)O3)cc1 (stereo not given)
activity change, negative = cytotoxicity (at 26 µM (top of the series)): -32.8% (inactive)

CCOc1ccc(-c2noc(CCC(=O)O)n2)cc1
activity change, negative = cytotoxicity (at 26 µM (top of the series)): -18.9% (inactive)
